Results published in patent US20060021075A1, “Group 1 CD1 transgenic mice and their uses” (priority 2004, published 2006).

Test system: BM-DCs
Assay: Flow cytometric analysis of CD1a, b, c expression on BM-DCs of hCD1Tg mice
Assay type: cell-based, mouse
Details: BM-DCs from hCD1Tg mice cultured in GM-CSF and IL-4

Substance	Upregulation of CD1a, b, and c expression on BM-DCs
IFN-γ: cytokine tested for upregulation of CD1 on BM-DCs	cannot be upregulated
TNF-α	cannot be upregulated
